This experiment deals with T1, FHIT (H96N) (Homo sapiens, UniProt P49789, H96N).
T1 construct: GST (N, cleaved yes); made in house; host or cells: E. coli BL21 (DE3)
Description: Fluorescence polarization assay, FHIT H96N-ApppBODIPY binding inhibition. To be noted: 5 µM FHIT (H96N), 1 µM ApppBODIPY. How it is done: The binding of FHIT (H96N) to fluorescein-labeled substrates ApppBODIPY was analyzed by fluorescence polarization assay in 384-well format for dose–response curve studies using spark instrument (TECAN) according to the protocol reported before. And 5 µM FHIT (H96N) protein was incubated with 1 µM fluorescein-labeled substrates in buffer A (25 mM Tris–HCl, pH 7.5, 5 mM MgCl2 and 2 mM DTT) with series diluted inhibitors as indicated. Each sample was allowed to equilibrate in the solution for 30 min. After 30 min, the steady-state fluorescence anisotropy (mP) was measured. A second reading was taken after 10 min, to ensure that the mixture was well-equilibrated and stable. Less than 5% change was observed between 30 and 40 min measurements. The IC50 value was determined by fitting the binding curves using GraphPad Prism 7.0.
On the technique in general: Polarisation of emitted light reports the rotation of a fluorescent probe.

T1 sequence (P49789 whole entry H96N): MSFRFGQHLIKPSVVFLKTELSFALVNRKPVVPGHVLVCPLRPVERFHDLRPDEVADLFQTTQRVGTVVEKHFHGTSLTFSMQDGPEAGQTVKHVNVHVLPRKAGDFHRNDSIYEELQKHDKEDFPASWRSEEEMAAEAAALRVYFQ

Take `Cc1c(S(=O)(=O)O)oc2c1C(=O)C(=O)c1c-2ccc2c1CCCC2(C)C` [STS, Sodium tanshinone IIA sulfonate]: the IC50 was determined as 2200 ± 50 nM.

One may read the IC50 as the midpoint of a concentration-inhibition curve. Higher therefore signals lower potency.

The values are drawn from paper PMC8190080, “Tanshinones induce tumor cell apoptosis via directly targeting FHIT” (Scientific Reports, 2021).
